{"source": "patent US20260335274A1", "about": "“COMPOSITIONS AND METHODS OF MINIMIZING LONG COVID” (priority 2022, published 2026)", "key": {"[1]": {"tested_on": "SARS-CoV-2", "conditions": "one-hour incubation; cited from earlier work"}, "[2]": {"conditions": "in vivo, cited from earlier work"}, "[3]": {"tested_on": "OC43 human coronavirus", "experiment": "Post-infection test, MRC-5 cells, TCID50", "assay_type": "cell-based, human coronavirus OC43 (MRC-5 human cells as host)", "conditions": "10 min exposure; for inhibition at 50 µM: read-out: titer reduction, post-infection", "procedure": "Then, 100 μl of either EC16 formulations or Remdesivir solutions of various concentrations were applied onto the cells for 10 min before being replaced by serum-free EMEM. The TCID50 values were determined after incubation for 4-7 days."}, "[4]": {"tested_on": "OC43 human coronavirus", "experiment": "Direct contact (contact inhibition) antiviral test, TCID50", "conditions": "Betacoronavirus 1, OC43, MRC5, in Homo sapiens, 0.5 h, read-out: reduction of OC43 infectivity"}, "[5]": {"tested_on": "OC43 human coronavirus", "experiment": "Pre-infection test, MRC-5 cells, TCID50", "assay_type": "cell-based, human coronavirus OC43 (MRC-5 human cells as host)", "conditions": "MRC5, 10 min; 50 μM EC16m, 10 min incubation before virus; read-out: reduction in viral infectivity, pre-infection", "procedure": "EC16m nasal formulations were incubated with MRC-5 cells in 96 well plates for 10 min, and then removed. A series dilution of OC43 in serum-free EMEM was added to the cells and incubated for 1 h. The viral dilutions were then replaced with serum-free EMEM, and TCID50 infection rate was determined after 4-7 days of incubation."}, "[6]": {"experiment": "Cytotoxicity of F18m in normal saline, MTT assay", "assay_type": "cell-based", "conditions": "human, hnepc; EC16m in saline formulation, 60 min exposure; read-out: concentration not toxic to HNEpC", "procedure": "The F18m glycerol stock was diluted 10× with normal saline to 1.4 mM of EC16m. A series dilution of this nanoformulation in Airway Growth Medium was applied to a monolayer of Human […] Primary Epithelial Cells (HNPEC, PromoCell) and incubated for 1 h before medium change and overnight incubation, followed by straining with an MTT assay."}}}
{"smiles": "O=C(O[C@@H]1Cc2c(O)cc(O)cc2O[C@@H]1c1cc(O)c(O)c(O)c1)c1cc(O)c(O)c(O)c1", "note": "[EGCG, epigallocatechin-3-gallate]", "values": [{"measurement": "EC90", "setting": "[1]", "result": 69, "unit": "µM"}, {"measurement": "bioavailability", "setting": "[2]", "result": "very low"}, {"measurement": "Cmax", "setting": "[2]; read-out: serum maximum concentration", "result": 570, "unit": "nM"}]}
{"smiles": "CCC(CC)COC(=O)[C@H](C)N[P@](=O)(OC[C@H]1O[C@@](C#N)(c2ccc3c(N)ncnn23)[C@H](O)[C@@H]1O)Oc1ccccc1", "note": "[remdesivir, reference compound]", "values": [{"measurement": "inhibition at 50 µM", "setting": "[3]; MRC5, 10 min, 50 μM", "result": 99.8, "unit": "%"}, {"measurement": "log reduction at 50 µM", "setting": "[3]; MRC5, 10 min, 50 μM, n=4, read-out: log10 titer reduction, post-infection", "result": "2.69 ± 0.24"}]}
{"smiles": "CCCCCCCCCCCCCCCC(=O)Oc1c(O)cc(C2Oc3cc(O)cc(O)c3CC2OC(=O)c2cc(O)c(O)c(O)c2)cc1O", "note": "(centres unmarked) [EC16m, Epigallocatechin-3-Gallate-mono-palmitate]", "values": [{"measurement": "inhibition of viral replication, post-infection", "setting": "[3]; 12.5 μM EC16m", "result": 99, "unit": "%"}, {"measurement": "inhibition at 12.5 µM", "setting": "[3]; MRC5, 10 min, 12.5 μM EC16m, read-out: inhibition of viral replication, post-infection", "result": "> 99", "unit": "%"}, {"measurement": "inhibition at 50 µM", "setting": "[3]; MRC5, 10 min, 50 μM", "result": 99.8, "unit": "%"}, {"measurement": "inhibition at 50 µM", "setting": "[4]", "result": 99.9, "unit": "%"}, {"measurement": "inhibition at 50 µM", "setting": "[5]", "result": 98.5, "unit": "%"}, {"measurement": "MNTC at 1 h", "setting": "[6]", "result": "< 280", "unit": "µM"}]}
